Five molecules from US4533667A, “Imidazolidinedione derivatives” (Pfizer Inc., priority 1984, dated 1985) can be followed below.

One experiment deals with T1, aldose reductase (Bos taurus, UniProt P16116).
T1 construct: partially purified aldose reductase enzyme obtained from calf lens; from tissue; host or cells: calf lens
Kind of experiment: inhibition of aldose reductase enzyme activity (partially purified enzyme from calf lens). It is filed as biochemical. The settings on record: for inhibition at 1 µM: 10^-6 M, partially purified aldose reductase from calf lens; for aldose reductase inhibitory activity (in words): qualitative statement, no concentration given. On the procedure: (§1) The activity of the compounds of the present invention, as agents for the control of chronic diabetic complications, is determined by their ability to successfully pass one or more of the following standard biological or pharmacological tests, viz., (1) measuring their ability to inhibit the enzyme activity of isolated aldose reductase; (2) measuring their ability to reduce or inhibit sorbitol accumulation in the sciatic nerve of acutely streptozotocinized (i.e., diabetic) rats; (3) measuring their ability to reverse already-elevated sorbitol levels in the sciatic nerve and lens of chronic streptozotocin-induced diabetic rats; (4) measuring their ability to prevent or inhibit galactitol formation in the lens of acutely galactosemic rats, and (5) measuring their ability to delay cataract formation and reduce the severity of lens opacities in chronic galactosemic rats.
The following spiro-oxindole imidazolidinedione final products of Examples 1-5, respectively, were tested at a concentration level of 10^-6 M for their ability to reduce or inhibit aldose reductase enzyme activity via the procedure of S. Hayman et al., as described in the Journal of Biological Chemistry, Vol. 240, p. 877 (1965) and as modified by K. Sestanj et al. in U.S. Pat. No. 3,821,383. In every case, the substrate employed was partially purified aldose reductase enzyme obtained from calf lens.

Experiment [1] deals with sorbitol levels in diabetic rats. Kind of experiment: inhibition of the formation of sorbitol levels in diabetic rats, oral. It is filed as in vivo, rat. The note with it: dose levels ranging from 0.5 mg/kg to 20 mg/kg.
Text: As previously indicated, the spiro-oxindole imidazolidinedione compounds of this invention are readily adapted to therapeutic use as aldose reductase inhibitors for the control of chronic diabetic complications, in view of their ability to reduce lens sorbitol levels in diabetic subjects to a statistically significant degree. […] Furthermore, the herein described compounds of this invention can be administered by either the oral or parenteral routes of administration. […]
as §1

In general, inhibition refers to how much of the control response was suppressed. The low end stands for little suppression, the high end for strong suppression. In the case of `Nc1cc(Cl)cc2c1NC(=O)C21NC(=O)NC1=O` (centres unmarked) [Example 1, 5'-chloro-7'-amino-spiro-[imidazolidine-4,3'-indolidine]-2,2',5-trione], on aldose reductase, the inhibition at 1 µM was found to be 72% and the “aldose reductase inhibitory activity (in words)” value is given as “highly potent”.
With `O=C1NC(=O)C2(N1)C(=O)N(Cc1cccnc1)c1c(Cl)cc(Cl)cc12` (centres unmarked) [Example 2, 1'-(3-pyridymethyl)-5',7'-dichloro-spiro-[imidazolidine-4,3'-indoline]-2,2',5-trione], at aldose reductase, 1 µM produced 81% inhibition and the “aldose reductase inhibitory activity (in words)” value is on record as “highly potent”. Also, the “inhibition of the formation of sorbitol levels in diabetic rats (in words)” value in experiment [1] is recorded as “significantly high degree”.
On to `O=C1NC(=O)C2(N1)C(=O)N(Cc1cccnc1)c1ccc(F)cc12` (centres unmarked) [Example 3, 1'-(3-pyridylmethyl)-5'-fluorospiro-[imidazolidine-4,3'-indoline]-2,2',5-trione], for which, on aldose reductase, the inhibition at 1 µM came to 71% and the “aldose reductase inhibitory activity (in words)” value is “highly potent”.
The matching figures for `Nc1ccc2c(c1)NC(=O)C21NC(=O)NC1=O` (centres unmarked) [Example 4, 6'-amino-spiro-[imidazolidine-4,3'-indoline]-2,2',5-trione]: 27% and “highly potent”.
The matching figures for `O=C1NC(=O)C2(N1)C(=O)Nc1cnccc12` (centres unmarked) [Example 5, spiro-[imidazolidine-4,3'-(6-azaindoline)]-2,2',5-trione]: 49% and “highly potent”.
